Activity calls are given as the source filed them. No cut-off for these calls is given here.
Legend:
[1] = system: A549/CDDP; assay: Disruption of redox homeostasis in human A549/DDP cells assessed as increase in ROS level at 0 to 9 uM measured after 48 hrs; format: functional, cell-based; settings: dose 0-9 µM
[2] = system: NCI-H460; assay: Anticancer activity against human NCI-H460 cells assessed as inhibition of cell growth incubated for 48 hrs by crystal violet staining based analysis; format: functional; settings: NCI-H460, 48 h
[3] = system: MGC-803; assay: Anticancer activity against human MGC-803 cells assessed as inhibition of cell growth incubated for 48 hrs by crystal violet staining based analysis; format: functional; settings: MGC-803, 48 h
[4] = biological target: T1, Serine/threonine-protein kinase PLK1 (Homo sapiens, UniProt P53350); assay: Inhibition of PLK1 in human A549/DDP cells assessed as reduction in protein abundance measured after 48 hrs by Western blot analysis; format: cell-based
[5] = system: A549; assay: Induction of cell cycle arrest at G2/M phase in human A549 cells at 0 to 15 uM measured after 48 hrs by RNase A/PI staining based flow cytometry analysis; format: functional; settings: dose 0-15 µM
[6] = system: A549; assay: Induction of morphological changes in human A549 cells assessed as increase in mitotic catastrophe in nucleus at 0 to 3 uM measured after 48 hrs by immunofluorescence based laser confocal microscopic analysis; format: functional, cell-based; settings: dose 0-3 µM
[7] = system: A549; assay: Anticancer activity against human A549 cells assessed as inhibition of cell growth incubated for 48 hrs by crystal violet staining based analysis; format: functional; settings: A549, 48 h
[8] = system: A549/CDDP; assay: Anticancer activity against human A549/DDP cells assessed as inhibition of cell growth incubated for 48 hrs by crystal violet staining based analysis; format: functional
[9] = biological target: T1, Serine/threonine-protein kinase PLK1; assay: Binding affinity to FLAG-tagged PLK1 kinase region (unknown origin) transfected in human A549 cells at 10 uM incubated for 1 hr by coimmunoprecipitation-MS analysis; format: cell-based
[10] = system: A549/CDDP; assay: Effect on c-Myc protein expression in human A549/DDP cells assessed as effect on protein abundance at 0 to 6 uM measured after 48 hrs by Western blot analysis; format: functional, cell-based; settings: dose 0-6 µM
[11] = system: A549/CDDP; assay: Effect on p21 protein expression in human A549/DDP cells assessed as effect on protein abundance at 0 to 6 uM measured after 48 hrs by Western blot analysis; format: functional, cell-based; settings: dose 0-6 µM
[12] = system: A549; assay: Disruption of PLK1-PRC1 protein protein interaction in human A549 cells assessed as reduction in amount of PLK1 captured by PRC1 antibody at 6 uM measured after 48 hrs by Co-IP analysis; format: cell-based
[13] = GSH reactivity of compound in PBS assessed as increase in fluorogenic response at 5 uM measured after 0 to 24 hrs by fluorescence spectrophotometer; format: physicochemical; settings: buffer, time 0-24 hrs
[14] = GSH reactivity of compound in PBS assessed as increase in fluorogenic response at 0 to 800 uM measured after 60 mins by fluorescence spectrophotometer; format: physicochemical; settings: buffer, 1 h, dose 0-800 µM
[15] = Binding affinity to cysteine in PBS assessed as increase in fluorogenic response at 5 uM by UV lamp irradiation/fluorescence spectrophotometer
[16] = GSH reactivity in human A549 cells assessed as increase in fluorescence intensity measured after 48 hrs; format: ADME, cell-based; settings: a549, 48 h, dose 0-9 µM
[17] = system: A549/CDDP; assay: Disruption of redox homeostasis in human A549/DDP cells assessed as induction of cell death; format: functional, cell-based
[18] = system: A549/CDDP; assay: Antitumor activity against human A549/DDP cells assessed as male BALB/c nude mouse assessed as reduction in tumor growth at 30 to 50 mg/kg, ip administered every 2 days for 32 days and measured 3 times a week; format: functional, organism-based; settings: dose 30-50 mg/kg, time 32.0 day
[19] = system: A549/CDDP; assay: Antitumor activity against human A549/DDP cells assessed as male BALB/c nude mouse assessed as tumor regression at 50 mg/kg, ip administered every 2 days for 32 days and measured 3 times a week; format: functional, organism-based; settings: time 32.0 day
[20] = system: A549/CDDP; assay: Antitumor activity against human A549/DDP cells assessed as male BALB/c nude mouse assessed as tumor growth inhibition at 30 mg/kg, ip administered every 2 days for 32 days and measured 3 times a week relative to control; format: functional; settings: 768 h, time 32 day, read-out: TGI
[21] = system: A549/CDDP; assay: Antitumor activity against human A549/DDP cells assessed as male BALB/c nude mouse assessed as tumor growth inhibition at 50 mg/kg, ip administered every 2 days for 32 days and measured 3 times a week relative to control; format: functional; settings: 768 h, time 32 day, read-out: TGI
[22] = system: A549/CDDP; assay: Antitumor activity against human A549/DDP cells assessed as male BALB/c nude mouse assessed as reduction in cell proliferation by measuring reduction in […] positive cells in tumor at 30 to 50 mg/kg, ip administered every 2 days for 32 days by immunohistochemistry; format: functional, organism-based; settings: dose 30-50 mg/kg, time 32.0 day
[23] = Toxicity in male BALB/c nude mouse xenografted with human A549/DDP cells assessed as reduction in body weight at 30 to 50 mg/kg, ip administered every 2 days for 32 days and measured 3 times a week; format: organism-based, A549/CDDP; settings: in vivo, 768 h, dose 30-50 mg/kg, time 32 day
[24] = Toxicity in male BALB/c nude mouse xenografted with human A549/DDP cells assessed as lung damage at 30 to 50 mg/kg, ip administered every 2 days for 32 days by H and E staining based analysis; format: organism-based, A549/CDDP; settings: in vivo, 768 h, dose 30-50 mg/kg, time 32 day
[25] = Toxicity in male BALB/c nude mouse xenografted with human A549/DDP cells assessed as heart damage at 30 to 50 mg/kg, ip administered every 2 days for 32 days by H and E staining based analysis; format: organism-based, A549/CDDP; settings: in vivo, 768 h, dose 30-50 mg/kg, time 32 day
[26] = Toxicity in male BALB/c nude mouse xenografted with human A549/DDP cells assessed as kidney damage at 30 to 50 mg/kg, ip administered every 2 days for 32 days by H and E staining based analysis; format: organism-based, A549/CDDP; settings: in vivo, 768 h, dose 30-50 mg/kg, time 32 day
[27] = Antiproliferative activity against human gefitinib resistant NCI-H1975 cells assessed as inhibition of cell growth incubated for 48 hrs by crystal violet staining based analysis; format: functional
[28] = Antitumor activity against human gefitinib resistant NCI-H1975 cells xenografted in male BALB/c nude mouse assessed as inhibition of tumor growth at 30 mg/kg, po administered every 2 days for 20 days and measured 3 times a week relative to control; format: functional; settings: gefitinib resistant NCI-H1975 cell, 480 h, time 20 day, read-out: TGI
[29] = Toxicity in male BALB/c nude mouse xenografted with human gefitinib resistant NCI-H1975 cells assessed as reduction in body weight at 30 mg/kg, po administered every 2 days for 20 days and measured 3 times a week; format: organism-based; settings: in vivo, 480 h, time 20 day
[30] = Toxicity in male BALB/c nude mouse xenografted with human gefitinib resistant NCI-H1975 cells assessed as heart damage at 30 mg/kg, po administered every 2 days for 20 days and measured 3 times a week by H and E staining based analysis; format: organism-based; settings: in vivo, 480 h, time 20 day
[31] = Toxicity in male BALB/c nude mouse xenografted with human gefitinib resistant NCI-H1975 cells assessed as kidney damage at 30 mg/kg, po administered every 2 days for 20 days and measured 3 times a week by H and E staining based analysis; format: organism-based; settings: in vivo, 480 h, time 20 day
[32] = Toxicity in male BALB/c nude mouse xenografted with human gefitinib resistant NCI-H1975 cells assessed as liver damage at 30 mg/kg, po administered every 2 days for 20 days and measured 3 times a week by H and E staining based analysis; format: organism-based; settings: in vivo, 480 h, time 20 day

T1 sequence (P53350 whole entry): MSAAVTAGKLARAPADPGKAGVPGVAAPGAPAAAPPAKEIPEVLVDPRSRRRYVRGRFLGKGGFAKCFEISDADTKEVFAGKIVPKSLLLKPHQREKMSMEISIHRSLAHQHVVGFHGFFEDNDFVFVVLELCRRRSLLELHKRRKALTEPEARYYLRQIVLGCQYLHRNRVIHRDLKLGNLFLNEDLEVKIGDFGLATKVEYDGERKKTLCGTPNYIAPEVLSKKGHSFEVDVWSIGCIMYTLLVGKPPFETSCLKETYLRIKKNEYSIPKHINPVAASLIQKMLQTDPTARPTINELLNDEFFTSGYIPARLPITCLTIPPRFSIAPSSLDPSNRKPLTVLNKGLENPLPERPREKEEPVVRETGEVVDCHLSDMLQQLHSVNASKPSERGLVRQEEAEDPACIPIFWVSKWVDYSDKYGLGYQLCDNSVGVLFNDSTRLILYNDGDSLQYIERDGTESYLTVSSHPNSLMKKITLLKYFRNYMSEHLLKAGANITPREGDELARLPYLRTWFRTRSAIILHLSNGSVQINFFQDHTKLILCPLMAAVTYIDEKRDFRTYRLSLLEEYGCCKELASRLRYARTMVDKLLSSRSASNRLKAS

SMILES: CN(C)CCN1C(=O)c2cccc3c(S(=O)(=O)NCc4ccc(F)cc4)ccc(c23)C1=O
- Activity [1]: Active
- IC50 [2]: 2.31 µM
- IC50 [3]: 3.2 µM
- inhibition [4]: Active
- Activity [5]: Active
- Activity [6]: Active
- IC50 [7]: 10.6 µM
- IC50 [8]: 2.65 µM
- Activity [9]: inactive
- Activity [10]: Active
- Activity [11]: Active
- Activity [12]: Active
- Drug metabolism [13]: Metabolite_Detected
- Drug metabolism [14]: Metabolite_Detected
- Activity [15]: inactive
- Drug metabolism [16]: Metabolite_Detected
- Activity [17]: Active
- Activity [18]: Active
- Activity [19]: Active
- inhibition in vivo at 30 mg/kg [20]: 42%
- inhibition in vivo at 50 mg/kg [21]: 62%
- Activity [22]: Active
- Activity [23]: Non-Toxic
- Activity [24]: Non-Toxic
- Activity [25]: Non-Toxic
- Activity [26]: Non-Toxic
- IC50 [27]: 7.83 µM
- inhibition in vivo at 30 mg/kg [28]: 44%
- Activity [29]: Non-Toxic
- Activity [30]: Non-Toxic
- Activity [31]: Non-Toxic
- Activity [32]: Non-Toxic

— ChEMBL document CHEMBL5550126, “Identification of naphthalimide-derivatives as novel PBD-targeted polo-like kinase 1 inhibitors with efficacy in drug-resistant lung cancer cells” (Eur J Med Chem, 2024)
